# Measurements from patent publication US10681909B2, “Herbicidal triazoles” (FMC Corporation, priority 2014, dated 2020).
# What was measured:
# barnyardgrass [1] = experiment: Test A preemergence; type: in vivo, Echinochloa crus-galli; conditions: 0 to 100 scale (0 no effect, 100 complete control)
# Summary of the method: (§1)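 Test chemicals, formulated in a surfactant-containing non-phytotoxic solvent mixture, are applied either as a directed soil spray to newly planted seeds or as a postemergence application to plants at the one- to two-leaf stage (2–10 cm). All plants grow in a loam soil and sand blend.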
# barnyardgrass [2] = experiment: Test A postemergence; type: in vivo, Echinochloa crus-galli; conditions: 0 to 100 scale (0 no effect, 100 complete control), approx. 10 d
# Summary of the method: as §1
# wheat = experiment: Test A postemergence; type: in vivo, Triticum aestivum; conditions: 0 to 100 scale (0 no effect, 100 complete control), approx. 10 d
# Summary of the method: as §1
# corn = experiment: Test A postemergence; type: in vivo, Zea mays; conditions: 0 to 100 scale (0 no effect, 100 complete control), approx. 10 d
# Summary of the method: as §1
# rice = experiment: Test B flooded paddy test; type: in vivo, Oryza sativa; conditions: 250 g ai/ha, applied to paddy water at 2-leaf stage, visual rating after 13 to 15 d, scale 0 (no effect) to 100 (complete control)
# Summary of the method: (§2)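 Pots were flooded to 3 cm above the soil at treatment, and compounds were applied directly into the paddy water. That depth was held throughout. After 13 to 15 d in a greenhouse, plants were rated visually against untreated controls.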
# sedge, umbrella = experiment: Test B flooded paddy test; type: in vivo, Cyperus difformis; conditions: 250 g ai/ha, applied to paddy water at 2-leaf stage, visual rating after 13 to 15 d, scale 0 (no effect) to 100 (complete control)
# Summary of the method: as §2
# barnyardgrass [3] = experiment: Test B flooded paddy test; type: in vivo, Echinochloa crus-galli; conditions: 250 g ai/ha, applied to paddy water at 2-leaf stage, visual rating after 13 to 15 d, scale 0 (no effect) to 100 (complete control)
# Summary of the method: as §2
# blackgrass = experiment: Test C postemergence; type: in vivo, Alopecurus myosuroides
# Summary of the method: (§3)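 Plants are treated postemergence at the 1- to 4-leaf stage (2 to 18 cm), grown in sphagnum peat/vermiculite medium; preemergence treatment is applied to seed planted in loam soil with sand. Both use test chemical in a non-phytotoxic solvent mixture with surfactant.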
# ryegrass, Italian = experiment: Test C postemergence; type: in vivo, Lolium multiflorum
# Summary of the method: as §3
# wheat (winter wheat) = experiment: Test C postemergence; type: in vivo, Triticum aestivum
# Summary of the method: as §3
# foxtail, giant = experiment: Test C postemergence; type: in vivo, Setaria faberii
# Summary of the method: as §3
# lambsquarters = experiment: Test C postemergence; type: in vivo, Chenopodium album
# Summary of the method: as §3
# morningglory = experiment: Test C postemergence; type: in vivo, Ipomoea coccinea
# Summary of the method: as §3
# nutsedge, yellow = experiment: Test C postemergence; type: in vivo, Cyperus esculentus
# Summary of the method: as §3
# pigweed = experiment: Test C postemergence; type: in vivo, Amaranthus retroflexus
# Summary of the method: as §3
# oilseed rape = experiment: Test C postemergence; type: in vivo, Brassica napus
# Summary of the method: as §3
# waterhemp = experiment: Test C postemergence; type: in vivo, Amaranthus rudis
# Summary of the method: as §3
# chickweed = experiment: Test C postemergence; type: in vivo, Stellaria media
# Summary of the method: as §3
# oat, wild = experiment: Test C postemergence; type: in vivo, Avena fatua
# Summary of the method: as §3
# kochia = experiment: Test C postemergence; type: in vivo, Kochia scoparia
# Summary of the method: as §3
smiles,measurement,setting,value
COc1nc(-c2ccc(C(F)(F)F)cc2)nn1Cc1ccnc(C(F)(F)F)c1 [Compound 25],"Plant response rating, Barnyardgrass",barnyardgrass [1]; 31 g ai/ha,10
same,"Plant response rating, Barnyardgrass",barnyardgrass [1]; 125 g ai/ha,70
same,"Plant response rating, Barnyardgrass",barnyardgrass [2]; 31 g ai/ha,20
same,"Plant response rating, Barnyardgrass",barnyardgrass [2]; 125 g ai/ha,60
same,"Plant response rating, Wheat",wheat; 31 g ai/ha,10
same,"Plant response rating, Wheat",wheat; 125 g ai/ha,20
same,"Plant response rating, Corn",corn; 31 g ai/ha,10
same,"Plant response rating, Corn",corn; 125 g ai/ha,30
same,"Plant response rating, Rice, Flood",rice,25
same,"Plant response rating, Sedge, Umbrella, Flood","sedge, umbrella",95
same,"Plant response rating, Barnyardgrass, Flood",barnyardgrass [3],35
same,Plant response rating (scale of 0 to 100 where 0 is no effect and 100 is complete control),blackgrass; 31 g ai/ha,5
same,Plant response rating (scale of 0 to 100 where 0 is no effect and 100 is complete control),blackgrass; 62 g ai/ha,10
same,Plant response rating (scale of 0 to 100 where 0 is no effect and 100 is complete control),blackgrass; 125 g ai/ha,30
same,Plant response rating (scale of 0 to 100 where 0 is no effect and 100 is complete control),blackgrass; 250 g ai/ha,60
same,Plant response rating (scale of 0 to 100 where 0 is no effect and 100 is complete control),"ryegrass, Italian; 31 g ai/ha",5
same,Plant response rating (scale of 0 to 100 where 0 is no effect and 100 is complete control),"ryegrass, Italian; 62 g ai/ha",5
same,Plant response rating (scale of 0 to 100 where 0 is no effect and 100 is complete control),"ryegrass, Italian; 125 g ai/ha",10
same,Plant response rating (scale of 0 to 100 where 0 is no effect and 100 is complete control),"ryegrass, Italian; 250 g ai/ha",30
same,Plant response rating (scale of 0 to 100 where 0 is no effect and 100 is complete control),wheat (winter wheat); 31 g ai/ha,5
same,Plant response rating (scale of 0 to 100 where 0 is no effect and 100 is complete control),wheat (winter wheat); 62 g ai/ha,5
same,Plant response rating (scale of 0 to 100 where 0 is no effect and 100 is complete control),wheat (winter wheat); 125 g ai/ha,5
same,Plant response rating (scale of 0 to 100 where 0 is no effect and 100 is complete control),wheat (winter wheat); 250 g ai/ha,10
same,Plant response rating (scale of 0 to 100 where 0 is no effect and 100 is complete control),"foxtail, giant; 31 g ai/ha",10
same,Plant response rating (scale of 0 to 100 where 0 is no effect and 100 is complete control),"foxtail, giant; 62 g ai/ha",20
same,Plant response rating (scale of 0 to 100 where 0 is no effect and 100 is complete control),"foxtail, giant; 125 g ai/ha",20
same,Plant response rating (scale of 0 to 100 where 0 is no effect and 100 is complete control),"foxtail, giant; 250 g ai/ha",35
same,Plant response rating (scale of 0 to 100 where 0 is no effect and 100 is complete control),lambsquarters; 31 g ai/ha,90
same,Plant response rating (scale of 0 to 100 where 0 is no effect and 100 is complete control),lambsquarters; 62 g ai/ha,90
same,Plant response rating (scale of 0 to 100 where 0 is no effect and 100 is complete control),lambsquarters; 125 g ai/ha,98
same,Plant response rating (scale of 0 to 100 where 0 is no effect and 100 is complete control),lambsquarters; 250 g ai/ha,98
same,Plant response rating (scale of 0 to 100 where 0 is no effect and 100 is complete control),morningglory; 31 g ai/ha,90
same,Plant response rating (scale of 0 to 100 where 0 is no effect and 100 is complete control),morningglory; 62 g ai/ha,85
same,Plant response rating (scale of 0 to 100 where 0 is no effect and 100 is complete control),morningglory; 125 g ai/ha,75
same,Plant response rating (scale of 0 to 100 where 0 is no effect and 100 is complete control),morningglory; 250 g ai/ha,95
same,Plant response rating (scale of 0 to 100 where 0 is no effect and 100 is complete control),"nutsedge, yellow; 31 g ai/ha",20
same,Plant response rating (scale of 0 to 100 where 0 is no effect and 100 is complete control),"nutsedge, yellow; 62 g ai/ha",20
same,Plant response rating (scale of 0 to 100 where 0 is no effect and 100 is complete control),"nutsedge, yellow; 125 g ai/ha",25
same,Plant response rating (scale of 0 to 100 where 0 is no effect and 100 is complete control),"nutsedge, yellow; 250 g ai/ha",25
same,Plant response rating (scale of 0 to 100 where 0 is no effect and 100 is complete control),pigweed; 31 g ai/ha,100
same,Plant response rating (scale of 0 to 100 where 0 is no effect and 100 is complete control),pigweed; 62 g ai/ha,100
same,Plant response rating (scale of 0 to 100 where 0 is no effect and 100 is complete control),pigweed; 125 g ai/ha,100
same,Plant response rating (scale of 0 to 100 where 0 is no effect and 100 is complete control),pigweed; 250 g ai/ha,100
same,Plant response rating (scale of 0 to 100 where 0 is no effect and 100 is complete control),"oilseed rape; Oilsee Rape, 250 g ai/ha",90
same,Plant response rating (scale of 0 to 100 where 0 is no effect and 100 is complete control),"oilseed rape; Oilseed Rape, 31 g ai/ha",90
same,Plant response rating (scale of 0 to 100 where 0 is no effect and 100 is complete control),"oilseed rape; Oilseed Rape, 62 g ai/ha",90
same,Plant response rating (scale of 0 to 100 where 0 is no effect and 100 is complete control),"oilseed rape; Oilseed Rape, 125 g ai/ha",90
same,Plant response rating (scale of 0 to 100 where 0 is no effect and 100 is complete control),waterhemp; 31 g ai/ha,95
same,Plant response rating (scale of 0 to 100 where 0 is no effect and 100 is complete control),waterhemp; 62 g ai/ha,95
same,Plant response rating (scale of 0 to 100 where 0 is no effect and 100 is complete control),waterhemp; 125 g ai/ha,98
same,Plant response rating (scale of 0 to 100 where 0 is no effect and 100 is complete control),waterhemp; 250 g ai/ha,95
same,Plant response rating (scale of 0 to 100 where 0 is no effect and 100 is complete control),chickweed; 31 g ai/ha,50
same,Plant response rating (scale of 0 to 100 where 0 is no effect and 100 is complete control),chickweed; 62 g ai/ha,90
same,Plant response rating (scale of 0 to 100 where 0 is no effect and 100 is complete control),chickweed; 125 g ai/ha,85
same,Plant response rating (scale of 0 to 100 where 0 is no effect and 100 is complete control),chickweed; 250 g ai/ha,100
same,Plant response rating (scale of 0 to 100 where 0 is no effect and 100 is complete control),"oat, wild; 31 g ai/ha",10
same,Plant response rating (scale of 0 to 100 where 0 is no effect and 100 is complete control),"oat, wild; 62 g ai/ha",20
same,Plant response rating (scale of 0 to 100 where 0 is no effect and 100 is complete control),"oat, wild; 125 g ai/ha",25
same,Plant response rating (scale of 0 to 100 where 0 is no effect and 100 is complete control),"oat, wild; 250 g ai/ha",35
same,Plant response rating (scale of 0 to 100 where 0 is no effect and 100 is complete control),kochia; 31 g ai/ha,90
same,Plant response rating (scale of 0 to 100 where 0 is no effect and 100 is complete control),kochia; 62 g ai/ha,90
same,Plant response rating (scale of 0 to 100 where 0 is no effect and 100 is complete control),kochia; 125 g ai/ha,90
same,Plant response rating (scale of 0 to 100 where 0 is no effect and 100 is complete control),kochia; 250 g ai/ha,95
